Patent publication US4232006A, “Antibiotic W-10 complex, antibiotic 20561 and antibiotic 20562 as antifungal agents” (Schering Corporation, priority 1978, dated 1980)
Values after ≈ are worked out from the molar mass of the structure shown. Numbered stars: 1 amine (or outer) side, 2 acyl side, 3 side chain; on linkers, the order of the positions; unused ones are H or OH. Bridge positions count the residues as written; N and C are the ends. Square brackets hold non-standard residues; d marks the D form. Peptide text beside a SMILES is read from it. * marks the point of attachment. NMeT = CN[CH](C(=O)O)[CH](C)O; X1 = CCCCCCCCCCCC(O)CC(=O)*; X2 = CC=C(N[*:1])C(=O)[*:2]; X3 = OCC1OC(*)C(O)C(O)C1O

Legend:
[1] = tested on: Saccharomyces cerevisiae ATCC 9763; test: Agar diffusion potency assay against standard solution of Antibiotic 20562; format: cell-based
Experimental: Peak Antibiotic W-10 Complex production is determined by periodic sampling of the fermentation mixture and by subjecting the samples to an agar diffusion assay using Saccharomyces cerevisiae ATCC 9763 as the test organism. The broths are assayed against a standard solution of Antibiotic 20562 having an assigned potency of 1000 mcg/mg. The standard solution is diluted with 10% potassium phosphate buffer (pH 6.0) to make solutions having antibiotic concentrations of 3.2, 4.0, 5.0, 6.25 and 7.8 mcg/ml. The assay is performed substantially as set forth in the Federal Register, Title 21, Chapter 436.105.

[2] = Toxicity (LD50), oral or subcutaneous administration; format: in vivo
[3] = tested on: Trichophyton mentagrophytes; test: In vivo topical activity against Trichophyton mentagrophytes skin infection in guinea pigs; details: 1% suspension in polyethylene glycol 400, topical twice daily for ten days from three days after infection
Experimental: The skin of fifteen guinea pigs is abraided and infected with a standard culture of Trichophyton mentagropytes. The infected animals are then separated into three groups containing five animals each. Suspensions containing 1% of the respective antibiotics in polyethylene glycol 400 are prepared. Two of the three groups are treated topically, twice daily for ten days commencing three days after infection. The third group (controls) remained untreated throughout the test. All of the animals are tested for infection by culture and observed for skin lesions for a total of 21 days.

Candida albicans [4] = test: In vivo protection (PD50) of mice intravenously infected with Candida albicans; parameters: species or system male CF1 mice; details: single dose one hour after i.v. infection, determined 48 hours after infection
Experimental: The in vivo activity of Antibiotic 20561, Antibiotic 20562 and the Antibiotic W-10 complex are obtained using male CF1 mice (Carworth Famrs) given a single oral or subcutaneous dose one hour after intraveneous infection with sufficient Candida albicans to kill 80% of the infected mice in 48 hours.
PD50 values were determined 48 hours after infection and are as follows: […]

Aeromonas sp. W-10 = test: Resistance of Aeromonas sp. W-10 to antibacterial agents (physiological characteristics); format: cell-based
Text: Based upon the physiological characteristics, morphology and the guanine plus cytosine content of isolated DNA, we have classified the organism as a novel member of the genus Aeromonas. We have designated the bacterium Aeromonas sp. W-10, sometimes referred to herein as Aeromonas W-10, and have deposited the microorganism with the United States Department of Agriculture, Northern Utilization Research and Development Division (NRRL), Peoria, Illinois, from whom subcultures are available. The microorganism has been assigned the numerical designation NRRL B-11053. […]. When observed microscopically, Aeromonas sp. W-10 is seen to be a non-spore forming, gram-negative rod approximately 0.5 to 1.0×1.0-1.5 microns. It occurs singly and is motile by means of a single polar flagellum. The organism is facultatively anaerobic, oxidase positive, capable of reducing nitrates to nitrites, insensitive to the vibriostatic compound 2 4-diamino-6,7-diisopropylpteridine (0/129) with a guanine-cytosine content of DNA at 61%. According to Bergy's Manual of Determinative Bacteriology, 8th Edition, the organism is, on the basis of the data set forth, classified as a member of the genus Aeromonas.
The growth and physiological characteristics of Aeromonas sp. All observations were made after seven (7) days of incubation at 28° C. […]

Candida albicans [5] = test: MIC in vitro in Sabourraud dextrose broth against strains of Candida albicans; format: cell-based
Experimental: Antibiotic 20562 was tested in vitro in Sabourraud dextrose broth against strains of Candida albicans, the Minimum Inhibitory Concentration (MIC) being set forth in Table IV below: […]

[6] = tested on: Candida albicans (Wisconsin strain); test: Topical in vivo activity against Candida albicans intravaginal infection in hamsters
Experimental: Using a culture of Candida albicans (Wisconsin strain), in Sabourrauds dextrose broth, infect intravaginally, five groups of six female hamsters. Forty-eight and seventy-two hours after infection, make smears of the infected animals and culture the smears. […] (96 hours after infection), make additional smears, culture and commence treatment. One group of six animals (controls) receives no treatment and, therefore, remains infected throughout the test. The remaining four groups of animals are treated with Antibiotic 20562, as 1%, 5%, 10% and 15% suspensions, respectively, the vehicle for suspension being administered on a cotton swab. At the end of the three day treatment the 1%, 5% and 10% groups are 60% cured, the 15% group is completely (100%) cured.

[7] = products of Example 2 step B, precipitated after silica gel chromatography
[8] = products of Example 3 steps C and D
[9] = separated antibiotics, crystalline solids from methanol, vs standard of 1000 mcg/mg

SMILES	Assay (potency by agar diffusion) [1, 7] [µg/mg]	Assay (potency by agar diffusion) [1, 8] [µg/mg]	Assay (potency by agar diffusion) [1, 9]	LD50 ([2]; oral administration) [mg/kg]	LD50 ([2]; subcutaneous administration) [mg/kg]	Days to become negative: Culture [3] [days]	Days to become negative: Lesion [3] [days]	PD50 (Candida albicans [4]; oral administration) [mg/kg]	PD50 (Candida albicans [4]; subcutaneous administration) [mg/kg]	other results
CC=C(NC(=O)CC(O)CCCCCCCCCCC)C(=O)NC1C(=O)NC(C(C)O)C(=O)NC(Cc2ccc(O)cc2)C(=O)NC(=CC)C(=O)NC(CCC(N)=O)C(=O)NCC(=O)N(C)C(C(C)O)C(=O)NC(Cc2cnc[nH]2)C(=O)OC1C (centres unmarked) [Antibiotic 20561] (X1-[X2]TTY[X2]QG[NMeT]H; ester 2-C; configuration not given here)	800	800	about 800 mcg/mg	1000	> 1000	4.8	6.3	25	4	
CC(C)c1nc2nc(N)nc(N)c2nc1C(C)C [0/129, 2 4-diamino-6,7-diisopropylpteridine]										sensitivity of the organism to the vibriostatic compound (Aeromonas sp. W-10): insensitive
CC=C(NC(=O)CC(O)CCCCCCCCCCC)C(=O)NC1C(=O)NC(C(C)O)C(=O)NC(Cc2ccc(O)cc2)C(=O)NC(=CC)C(=O)NC(CCC(N)=O)C(=O)NCC(=O)N(C)C(C(C)OC2OC(CO)C(O)C(O)C2O)C(=O)NC(Cc2cnc[nH]2)C(=O)OC1C (centres unmarked) [Antibiotic 20562] (X1-[X2]TTY[X2]QG[NMeT](X3)H; ester 2-C; configuration not given here)	800	1000	about 1000 mcg/mg	800	600	5.8	9.0	25	4	MIC (Candida albicans [5]; Candida albicans strain 29): 0.075 µg/mL (≈ 0.0552 µM); MIC (Candida albicans [5]; Candida albicans strain Bevan): 0.075 µg/mL (≈ 0.0552 µM); MIC (Candida albicans [5]; Candida albicans strain Burke): 0.075 µg/mL (≈ 0.0552 µM); MIC (Candida albicans [5]; Candida albicans strain Collins): 0.075 µg/mL (≈ 0.0552 µM); MIC (Candida albicans [5]; Candida albicans strain Fix): 0.075 µg/mL (≈ 0.0552 µM); MIC (Candida albicans [5]; Candida albicans strain Lush): 0.075 µg/mL (≈ 0.0552 µM); MIC (Candida albicans [5]; Candida albicans strain Merkel): 0.075 µg/mL (≈ 0.0552 µM); MIC (Candida albicans [5]; Candida albicans strain Newcomb): 0.075 µg/mL (≈ 0.0552 µM); MIC (Candida albicans [5]; Candida albicans strain No. 1): 0.075 µg/mL (≈ 0.0552 µM); MIC (Candida albicans [5]; Candida albicans strain Raub): 0.075 µg/mL (≈ 0.0552 µM); MIC (Candida albicans [5]; Candida albicans strain Sperk): 0.075 µg/mL (≈ 0.0552 µM); MIC (Candida albicans [5]; Candida albicans strain Wisconsin): 0.075 µg/mL (≈ 0.0552 µM); cured at end of three day treatment ([6]; 1% suspension): 60%; cured at end of three day treatment ([6]; 5% suspension): 60%; cured at end of three day treatment ([6]; 10% suspension): 60%; cured at end of three day treatment ([6]; 15% suspension): 100%
